Measured values published in patent US12102631B2, “Quinolylnitrones for the treatment and prevention of a cerebral stroke or ischaemia” (ISQUAEMIA BIOTECH, S.L., priority 2018, dated 2024).
Like-named read-outs stand apart in the source and are kept apart here.

What was measured:
tMCAO in C57BL/6 mice [1] = conditions: 40 mg/kg; data recently reported by the group; cited from earlier work
tMCAO in C57BL/6 mice [2] = conditions: 40 mg/kg; 48 h after treatment; earlier report of the group; cited from earlier work
tMCAO in C57BL/6 mice [3] = assay: Infarct size (TTC staining) after tMCAO; assay type: in vivo; conditions: 2.0 mg/kg; 48 h after tMCAO
Description: Animal model of focal cerebral ischemia. Transient occlusion of a distal branch of the middle cerebral artery (tMCAO) was induced in male C57BL/6 mice (9-12 week old, Charles River) as previously described.^57 The animals were housed in a light/dark cycle (12 hour), humidity and temperature (22±2° C.) controlled environment with food and water available ad libitum. Briefly, mice were anesthetized with 4% isoflurane for induction and 1.5-2% isoflurane for maintenance (in 79% N2/21% O2). After drilling a small hole on the temporal bone, the middle cerebral artery (MCA) was compressed for 60 min with a 30-G needle using a micromanipulator. During the surgery, body temperature was maintained between 37.0±0.5° C. using a homoeothermic blanket and CBF was monitored using laser-Doppler flowmetry to confirm MCA occlusion. […]
Infarct volume evaluation. The size of infarction was evaluated at 48 hours after MCAO using 2,3,5-tetrazolium chloride (TTC) staining.^58 Mice were sacrificed by transcardial perfusion with ice-cold saline under deep anesthesia. […] The infarct areas were measured using the Image-J software and the infarct volume was determined by linear integration of the measured lesion areas and distances over the sections. […]
To examine the efficacy of QN 23 treatment in animals subjected to tMCAO, the infarct size was calculated 48 h after tMCAO model induction. […]

[4] = tested on: primary neuronal cultures subjected to OGD; assay: Lipid peroxidation (MDA) in primary neuronal cultures after OGD; assay type: cell-based, rat; conditions: 4 h recovery after 4 h OGD; significant at 100 μM
Description: Lipid peroxidation. Lipid peroxidation was evaluated by the detection of end products such as malondialdehyde (MDA) as a result of oxidative attack to polyunsaturated lipids. Lipid peroxidation was determined by the reaction of MDA with thiobarbituric acid (TBA) to form a colorimetric/fluorometric product, proportional to the MDA present. After recovery period for 4 h, cells (1.5×10^6) were lysed and centrifuged according to the supplier instructions (Sigma, MAK085), and then the thiobarbituric acid was added to the supernatant and mixed in a vortex. The samples were incubated at 95° C. for 60 min, cooled to room temperature and then n-butanol and 5M NaCl were added in a reaction mixture 8:3:1 (v/v) sample:n-butanol:NaCl. After mixed in a vortex, the samples were centrifuged, the n-butanol layer was taken and evaporated, the MDA-TBA adducts were dissolve in water and the absorbance was measured at 540 nm.
Exposure of neuronal cultures to 4 h OGD induced significant ROS generation after 2 h recovery in normoxic and normoglycemic conditions (R2 h) (210%, p<0.005 compared with 100% control) (FIG. 5A). […] ROS generation may induce lipid peroxidation and cell membrane damage. […]

tMCAO in C57BL/6 mice [5] = assay: Grip strength test after transient middle cerebral artery occlusion (tMCAO); assay type: in vivo
Description: Animal model of focal cerebral ischemia. Transient occlusion of a distal branch of the middle cerebral artery (tMCAO) was induced in male C57BL/6 mice (9-12 week old, Charles River) as previously described.^57 The animals were housed in a light/dark cycle (12 hour), humidity and temperature (22±2° C.) controlled environment with food and water available ad libitum. Briefly, mice were anesthetized with 4% isoflurane for induction and 1.5-2% isoflurane for maintenance (in 79% N2/21% O2). After drilling a small hole on the temporal bone, the middle cerebral artery (MCA) was compressed for 60 min with a 30-G needle using a micromanipulator. During the surgery, body temperature was maintained between 37.0±0.5° C. using a homoeothermic blanket and CBF was monitored using laser-Doppler flowmetry to confirm MCA occlusion. Buprenorphine (0.05-0.1 mg/kg) was administered subcutaneously immediately before the procedure. A total of 28 mice were subjected to tMCAO according to the design of the study. We performed a power analysis to determine sample size (significance level set at 0.05, the power set at 0.8 (80%)) resulting in 8 animals per experimental group. Surgical inclusion criteria: a reduction in blood flow to <25% of baseline value during ischemia period, and a recovery of 75% of baseline value in the reperfusion period. […] Mice were randomly assigned using a randomization software to the following experimental groups (n=8 per group): vehicle (saline-EtOH 90:10 vol/vol), nitrone 23 (1.5 mg/kg) and nitrone 23 (2.0 mg/kg). The treatments were administered intraperitoneally at the onset of reperfusion period by a blinded investigator. […]
Motor-deficit evaluation, grip strength test. […] A total of 6 trials were conducted for each test and the strength value was calculated as the mean of them.
To assess the neuroprotective effect of QN 23 on experimental ischemic stroke, we induced a transient middle cerebral artery occlusion (tMCAO) and evaluated the motor deficits by grip strength test at 24 h and 48 h after the administration of QN 23. […]

[6] = tested on: primary neuronal cultures subjected to OGD; assay: ROS formation in primary neuronal cultures after OGD; assay type: cell-based, rat; conditions: 2 h recovery after 4 h OGD; significant at 100 μM
Description: Measurement of the ROS formation. To detect the intracellular ROS formation a nonfluorescent and cell permeable reagent was used according to the supplier instructions (Sigma, MAK143). The reagent enters into the cells and reacts with ROS (especially superoxide and hydroxyl radicals) in the cytoplasm, resulting in a fluorometric product proportional to the amount of ROS present. The reagent was added to the cells at the moment that they were subjected to different treatments. After recovery period for 2 h, the fluorescence intensity was at 490 nm λex and 535 nm λem.
Exposure of neuronal cultures to 4 h OGD induced significant ROS generation after 2 h recovery in normoxic and normoglycemic conditions (R2 h) (210%, p<0.005 compared with 100% control) (FIG. 5A). […] ROS generation may induce lipid peroxidation and cell membrane damage. […] The decrease of ROS formation and lipid peroxidation were significant at 100 μM QN 23, in accordance with the concentration at which the QN 23 had the higher neuroprotective activity against experimental ischemia in neuronal cultures (FIG. 4 and Table 1).

For `CC(C)(C)/[N+]([O-])=C/c1ccc(S(=O)(=O)O)cc1S(=O)(=O)O` [Compound 2, sodium (Z)-4-((tert-butyloxidoazanylidene)methyl)benzene-1,3-disulfonate, reference compound], which “size of the ischemic lesion (in words)” value (tMCAO in C57BL/6 mice [1]) is on record?
The value was “did not reduce the size of the ischemic lesion”.

What about the “improvement of grip strength” value (tMCAO in C57BL/6 mice [2]) of the same compound?
Its value is 11.8%.

Which “size of the ischemic lesion (in words)” value (tMCAO in C57BL/6 mice [3]) does the source give for `COc1ccc2nc(Cl)c(/C=[N+](\[O-])C(C)(C)C)cc2c1` [Compound 23, (Z)—N-tert-Butyl-1-(2-chloro-6-methoxyquinolin-3-yl)methanimine oxide] here?
Its value is “significantly lower than in vehicle treated animals”.

What about the lipid peroxidation [4] of the same compound?
The lipid peroxidation was “significantly decreased compared to R4 h value”.

And the “motor deficit compared with vehicle (in words)” value (tMCAO in C57BL/6 mice [5]; 1.5 mg/kg and 2.0 mg/kg, 48 h after treatment)?
The value was “significant decrease of motor deficit”.

What about the “grip strength compared with vehicle (in words)” value (tMCAO in C57BL/6 mice [5]; 2.0 mg/kg, 24 h after treatment) of the same compound?
The value was “improvement in the grip strength which was significant”.

And the “improvement of grip strength” value (tMCAO in C57BL/6 mice [5]; 48 h after treatment)?
The value was 20.7%.

What about the ROS formation [6] of the same compound?
The ROS formation was “significantly decreased to the control value”.
